Source: paper PMC10169861, “Structural mechanism of human oncochannel TRPV6 inhibition by the natural phytoestrogen genistein” (Nature Communications, 2023)
Numbering of substitutions follows the chain as printed. Where “and” joins values, the source holds several entries; their conditions need not be identical. Equal entries are not always repeated.

Legend:
H582A-H587A mutant TRPV6 = target: T1, H582A-H587A mutant TRPV6 (Homo sapiens, UniProt Q9H1D0, H622A/H627A); test: Fura-2-based measurement of Ca2+ uptake, H582A-H587A mutant channels; assay type: cell-based; conditions: for normalized change in F340/F380 (Ca2+ uptake relative to no genistein): H582A-H587A
T1 construct: Full-length wild-type or mutant human TRPV6 was expressed in HEK 293S cells as described above; expressed in transfected cells; host or cells: HEK 293S GnTI- cells, baculovirus (BacMam) transduction
T1 sequence (Q9H1D0 41-765 H622A/H627A limits assumed): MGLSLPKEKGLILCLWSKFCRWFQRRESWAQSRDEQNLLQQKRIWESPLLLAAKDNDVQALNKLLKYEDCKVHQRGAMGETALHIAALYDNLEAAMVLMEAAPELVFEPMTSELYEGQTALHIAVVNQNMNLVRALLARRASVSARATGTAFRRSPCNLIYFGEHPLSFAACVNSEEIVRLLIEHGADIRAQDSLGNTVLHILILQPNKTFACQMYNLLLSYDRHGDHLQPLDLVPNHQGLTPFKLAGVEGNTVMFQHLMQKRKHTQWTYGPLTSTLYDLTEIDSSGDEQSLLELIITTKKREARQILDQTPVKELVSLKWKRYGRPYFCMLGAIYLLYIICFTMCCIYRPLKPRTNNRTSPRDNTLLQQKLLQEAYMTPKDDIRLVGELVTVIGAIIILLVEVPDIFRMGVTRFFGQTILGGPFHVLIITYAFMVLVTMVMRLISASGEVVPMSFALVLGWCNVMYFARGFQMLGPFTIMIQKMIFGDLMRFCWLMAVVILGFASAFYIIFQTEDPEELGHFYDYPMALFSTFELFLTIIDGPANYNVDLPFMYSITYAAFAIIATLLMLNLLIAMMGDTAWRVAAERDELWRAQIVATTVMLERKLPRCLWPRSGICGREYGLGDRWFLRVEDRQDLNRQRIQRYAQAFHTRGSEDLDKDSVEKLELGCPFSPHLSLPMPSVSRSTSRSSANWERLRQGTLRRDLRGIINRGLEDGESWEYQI

H582A mutant TRPV6 = target: T2, H582A mutant TRPV6 (Homo sapiens, UniProt Q9H1D0, H622A); test: Fura-2-based measurement of Ca2+ uptake, H582A mutant channels; assay type: cell-based; conditions: for normalized change in F340/F380 (Ca2+ uptake relative to no genistein): H582A
T2 construct: Full-length wild-type or mutant human TRPV6 was expressed in HEK 293S cells as described above; expressed in transfected cells; host or cells: HEK 293S GnTI- cells, baculovirus (BacMam) transduction
T2 sequence (Q9H1D0 41-765 H622A limits assumed): T1 sequence (Q9H1D0 41-765 H622A/H627A limits assumed) with A587H

[1] = target: T3, wild-type human TRPV6 (hTRPV6) (Homo sapiens, UniProt Q9H1D0); test: Whole-cell patch-clamp recording of hTRPV6-mediated currents in HEK 293S cells; assay type: cell-based; conditions: for TRPV6-mediated current amplitude at −60 mV, normalized to the value in the absence of genistein: WT
T3 construct: Full-length wild-type or mutant human TRPV6 was expressed in HEK 293S cells as described above; expressed in transfected cells; host or cells: HEK 293S GnTI- cells, baculovirus (BacMam) transduction
T3 sequence (Q9H1D0 41-765 limits assumed): T1 sequence (Q9H1D0 41-765 H622A/H627A limits assumed) with A582H, A587H

H587A mutant TRPV6 = target: T4, H587A mutant TRPV6 (Homo sapiens, UniProt Q9H1D0, H627A); test: Fura-2-based measurement of Ca2+ uptake, H587A mutant channels; assay type: cell-based; conditions: for normalized change in F340/F380 (Ca2+ uptake relative to no genistein): H587A
T4 construct: Full-length wild-type or mutant human TRPV6 was expressed in HEK 293S cells as described above; expressed in transfected cells; host or cells: HEK 293S GnTI- cells, baculovirus (BacMam) transduction
T4 sequence (Q9H1D0 41-765 H627A limits assumed): T1 sequence (Q9H1D0 41-765 H622A/H627A limits assumed) with A582H

[2] = target: T3, wild-type human TRPV6 (hTRPV6); test: Fura-2-based ratiometric measurement of Ca2+ uptake in hTRPV6-expressing HEK 293S cells; assay type: cell-based; conditions: for normalized change in F340/F380 (Ca2+ uptake relative to no genistein): WT
human TRPV6 (human) = test: cryo-EM structure; purified hTRPV6 in 150 mM NaCl, 20 mM Tris-HCl pH 8.0, 1 mM βME, 0.01% GDN, 0.001% CHS, with 2 mM genistein; two populations of particles: open (C4, 2.71 Å) and genistein-bound (C1, 2.66 Å)
[3] = Conc 10, individual experiments
[4] = Conc 30, individual experiments
[5] = Conc 100, individual experiments
[6] = Conc 300, individual experiments
[7] = Conc 1000, individual experiments
[8] = Conc 3000, individual experiments
[9] = Conc 10000, individual experiments

With `O=c1c(-c2ccc(O)cc2)coc2cc(O)cc(O)c12` [genistein, 4′,5,7-trihydroxyisoflavone] the IC50 (H582A-H587A mutant TRPV6) was 318 ± 45 µM, the “Hill coefficient nHill” value (H582A-H587A mutant TRPV6; H582A-H587A mutant, n = 3) was 0.71 ± 0.06 and the “normalized change in F340/F380 (Ca2+ uptake relative to no genistein)” value (H582A-H587A mutant TRPV6; [3]) was 0.8831 and 0.8274 and 0.7934. For the same molecule, the “normalized change in F340/F380 (Ca2+ uptake relative to no genistein)” value (H582A-H587A mutant TRPV6; [4]) was 0.9307 and 0.8133 and 0.7372, the “normalized change in F340/F380 (Ca2+ uptake relative to no genistein)” value (H582A-H587A mutant TRPV6; [5]) was 0.6996 and 0.5804 and 0.6176 and the “normalized change in F340/F380 (Ca2+ uptake relative to no genistein)” value (H582A-H587A mutant TRPV6; [6]) was 0.6004 and 0.5392 and 0.6135 and 0.4739. For the same molecule, the “normalized change in F340/F380 (Ca2+ uptake relative to no genistein)” value (H582A-H587A mutant TRPV6; [7]) was 0.3135 and 0.3303, the “normalized change in F340/F380 (Ca2+ uptake relative to no genistein)” value (H582A-H587A mutant TRPV6; [8]) was 0.1423 and 0.1604 and 0.1695 and the “normalized change in F340/F380 (Ca2+ uptake relative to no genistein)” value (H582A-H587A mutant TRPV6; [9]) was 0.08246 and 0.05437 and 0.05709. The IC50 (H582A mutant TRPV6) was 184 ± 24 µM, the “Hill coefficient nHill” value (H582A mutant TRPV6; H582A mutant, n = 3) was 0.73 ± 0.04 and the “normalized change in F340/F380 (Ca2+ uptake relative to no genistein)” value (H582A mutant TRPV6; Conc 3, individual experiments) was 1.0287 and 0.8943 and 0.9077. For the same molecule, the “normalized change in F340/F380 (Ca2+ uptake relative to no genistein)” value (H582A mutant TRPV6; [3]) was 0.885 and 0.8976 and 0.8985, the “normalized change in F340/F380 (Ca2+ uptake relative to no genistein)” value (H582A mutant TRPV6; [4]) was 0.8976 and 0.8451 and 0.809 and the “normalized change in F340/F380 (Ca2+ uptake relative to no genistein)” value (H582A mutant TRPV6; [5]) was 0.6519 and 0.7074 and 0.5784. The “normalized change in F340/F380 (Ca2+ uptake relative to no genistein)” value (H582A mutant TRPV6; [6]) was 0.3755 and 0.336 and 0.3944, the “normalized change in F340/F380 (Ca2+ uptake relative to no genistein)” value (H582A mutant TRPV6; [7]) was 0.155 and 0.378 and 0.368 and the “normalized change in F340/F380 (Ca2+ uptake relative to no genistein)” value (H582A mutant TRPV6; [8]) was 0.1504 and 0.2134 and 0.1508. For the same molecule, the IC50 [1] was 40.7 ± 2.6 µM, the inhibition at 50 µM ([1]; HEK293S, 50 µM genistein, –60 mV membrane potential, mean ± SEM, n = 13, read-out: inhibition of the hTRPV6-mediated current) was 54 ± 4% and the “TRPV6-mediated current amplitude at −60 mV, normalized to the value in the absence of genistein” value ([1]; Conc 6.25 (µM per Supplementary Fig. 1), individual measurements) was 0.8818 and 0.9418 and 0.9228 and 0.9734 and 0.9342 and 0.9778 and 0.9793. The “TRPV6-mediated current amplitude at −60 mV, normalized to the value in the absence of genistein” value ([1]; Conc 12.5, individual measurements) was 0.8695 and 0.8933 and 0.8898 and 0.8819 and 0.904 and 0.9294 and 0.929, the “TRPV6-mediated current amplitude at −60 mV, normalized to the value in the absence of genistein” value ([1]; Conc 25, individual measurements) was 0.744 and 0.6559 and 0.7679 and 0.6876 and 0.7485 and 0.5641 and 0.5617 and the “TRPV6-mediated current amplitude at −60 mV, normalized to the value in the absence of genistein” value ([1]; Conc 50, individual measurements) was 0.3726 and 0.4985 and 0.3764 and 0.4722 and 0.3722 (2×). The “Hill coefficient nHill, current inhibition” value ([1]; current amplitude at −60 mV, logistic fit, n = 7) was 1.80 and 1.80 ± 0.13, the IC50 (H587A mutant TRPV6) was 267 ± 29 µM and the “Hill coefficient nHill” value (H587A mutant TRPV6; H587A mutant, n = 3) was 0.67 ± 0.03. The “normalized change in F340/F380 (Ca2+ uptake relative to no genistein)” value (H587A mutant TRPV6; [3]) was 0.9155 and 0.8981 and 0.9014, the “normalized change in F340/F380 (Ca2+ uptake relative to no genistein)” value (H587A mutant TRPV6; [4]) was 0.7349 and 0.8633 and 0.7848 and the “normalized change in F340/F380 (Ca2+ uptake relative to no genistein)” value (H587A mutant TRPV6; [5]) was 0.5614 and 0.5516 and 0.49. For the same molecule, the “normalized change in F340/F380 (Ca2+ uptake relative to no genistein)” value (H587A mutant TRPV6; [6]) was 0.505 and 0.498 and 0.5741, the “normalized change in F340/F380 (Ca2+ uptake relative to no genistein)” value (H587A mutant TRPV6; [7]) was 0.2958 and 0.3277 and 0.2981 and the “normalized change in F340/F380 (Ca2+ uptake relative to no genistein)” value (H587A mutant TRPV6; [8]) was 0.1683 and 0.1914 and 0.1575. For the same molecule, the “normalized change in F340/F380 (Ca2+ uptake relative to no genistein)” value (H587A mutant TRPV6; [9]) was 0.08605 and 0.071 and 0.06959, the “normalized change in F340/F380 (Ca2+ uptake relative to no genistein)” value ([2]; Conc 10 (µM per Fig. 1c), individual experiments) was 0.9427 and 0.8061 and 0.8429 and the “normalized change in F340/F380 (Ca2+ uptake relative to no genistein)” value [2, 4] was 0.7049 and 0.7764 and 0.7537. For the same molecule, the “normalized change in F340/F380 (Ca2+ uptake relative to no genistein)” value [2, 5] was 0.5343 and 0.4706 and 0.5414, the “normalized change in F340/F380 (Ca2+ uptake relative to no genistein)” value [2, 6] was 0.3064 and 0.3178 and 0.351 and the “normalized change in F340/F380 (Ca2+ uptake relative to no genistein)” value [2, 7] was 0.1486 and 0.1458 and 0.1663. The “normalized change in F340/F380 (Ca2+ uptake relative to no genistein)” value [2, 8] was 0.07643 and 0.09271, the IC50 ([2]; wild-type, 10 mM Ca2+ after pre-incubation, mean ± SEM, n = 3, read-out: IC50, inhibition of hTRPV6-mediated Ca2+ uptake) was 113 µM and the “Hill coefficient nHill, inhibition of Ca2+ uptake” value ([2]; wild-type, n = 3) was 0.77 ± 0.02.
human TRPV6 (natural protein) was tested, and the stoichiometry N (human TRPV6 (human)) was 4.
